Assay results reported in patent US5135937A, “Cycloalkylene azoles and pharmaceutical preparations obtained therefrom” (Schering Aktiengesellschaft, priority 1989, dated 1992).
pKi: −log10 of the molar value. Several values for one entry are separate records, joined by “and”; a condition that tells them apart may be missing. Equal entries are not always repeated. Structures can show the parent of a compound that is named as a salt. Where two headings read alike, the source gives them in different places.

How the values were obtained:
[1] = test system: Androstenedione-Induced Uterus Growth; test: Influence on androstenedione-induced uterus growth in infantile rats (Test b); format: in vivo, rat; details: 3 days; for Uterus Weight: infantile female rats; for Inhibition in % (of uterus growth, based on the androstenedione group): vehicle basic value deducted
Experimental: (§1) The following compounds are examined as representative:
Influence on Androstenedione-Induced Uterus Growth in Infantile Rats
Infantile female rats receive once daily the compound to be tested in combination with androstenedione over a period of three days. One group receives only androstenedione, and a further group only the vehicle. One day after the last treatment, the animals are sacrificed by decapitation and exsanguination, and the fresh uterus weights (without content) are determined. The uterus weights are calculated for mg/100 g body weight. The average value and standard deviation are calculated for each group. Variance analysis is used to check the significances of the differences with respect to the control group (androstenedione group and, respectively, vehicle group). Furthermore, the percentage inhibition of uterus growth is determined, based on the androstenedione group. In this determination, the uterus weight of the vehicle group (basic value) is deducted from the corresponding weight of the androstenedione group. The individual dosage groups, after subtracting the basic value, are based on the thus-obtained value.

[2] = molecular target: T1, aromatase (Homo sapiens, UniProt P11511); test: Aromatase inhibition in human placenta (Test a): microsomes, release of 3H2O from [1β-3H]-androstenedione, Ki by Dixon plot; format: biochemical
T1 construct: microsomes obtained from human placenta; from tissue; host or cells: human placenta (microsomes)
T1 sequence (P11511 1-503): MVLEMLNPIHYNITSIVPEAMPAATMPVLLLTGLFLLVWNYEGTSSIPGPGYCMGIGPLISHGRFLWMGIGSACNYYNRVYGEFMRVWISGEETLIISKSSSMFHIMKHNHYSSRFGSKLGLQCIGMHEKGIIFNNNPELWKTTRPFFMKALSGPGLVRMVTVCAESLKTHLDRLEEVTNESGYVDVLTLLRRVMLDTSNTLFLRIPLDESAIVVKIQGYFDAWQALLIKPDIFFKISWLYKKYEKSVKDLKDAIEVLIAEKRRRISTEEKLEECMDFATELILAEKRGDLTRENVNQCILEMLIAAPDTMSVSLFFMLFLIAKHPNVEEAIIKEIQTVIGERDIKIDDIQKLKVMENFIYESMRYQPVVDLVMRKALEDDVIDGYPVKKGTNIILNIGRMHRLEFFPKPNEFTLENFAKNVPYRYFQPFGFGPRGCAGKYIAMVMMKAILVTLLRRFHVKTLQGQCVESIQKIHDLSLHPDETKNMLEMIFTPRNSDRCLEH
Experimental: as §1
Aromatase Inhibition in Human Placenta
The abilities of the compounds of inhibiting the enzyme system of aromatase is tested on microsomes obtained from human placenta.

[3] = compound + AD, 0.2 + 30 mg/kg/day, hydrochloride, 30 mg/kg/day
[4] = compound + AD, 2.0 + 30 mg/kg/day
[5] = compound + AD, 0.2 + 30 mg/kg/day
[6] = human placenta microsomes, [1β-3H]-androstenedione substrate, 4-OH-androstenedione as reference compound, read-out: Ki, Aromatase

| Structure (SMILES) | Uterus Weight [1, 4] | Inhibition in % (of uterus growth, based on the androstenedione group) [1, 4] | pKi [2, 6] | further results |
| --- | --- | --- | --- | --- |
| N#Cc1ccc(C2CCCc3cncn32)cc1 (racemic) [D, 5-(p-cyanophenyl)-5,6,7,8tetrahydroimidazo[-1,5a]pyridine, hydrochloride, reference compound] | – | – | – | Uterus Weight [1, 3]: 69.9 ± 6.6 mg/100 g BW and 83.2 ± 6.9 mg/100 g BW; Inhibition in % (of uterus growth, based on the androstenedione group) [1, 3]: 84% and 86% |
| C[C@]12CCC(=O)C(O)=C1CC[C@@H]1[C@@H]2CC[C@]2(C)C(=O)CC[C@@H]12 [4-OH-Androstenedione, reference compound] | – | – | – | pKi ([2]; Ki, Aromatase): 7.21 and 7.39 |
| C[C@]12CCC(=O)C=C1CC[C@@H]1[C@@H]2CC[C@]2(C)C(=O)CC[C@@H]12 [Androstenedione, reference compound] | – | – | – | Uterus Weight ([1]; androstenedione (AD) alone 30 mg/kg/day): 213.6 ± 32.4 mg/100 g BW and 183.5 ± 22.7 mg/100 g BW |
| N#Cc1ccc(C(=C2CCCC2)n2ccnc2)cc1 [C, 4-[1-Cyclopentylidene-1-(1-imidazolyl)methyl]benzonitrile] | 69.2 ± 5.7 mg/100 g BW | 85% | – | – |
| Cl.N#Cc1ccc(C(=C2CCCCC2)n2ccnc2)cc1 [Compound A, 4-[1-Cyclohexylidene-1-(1-imidazolyl)methyl]benzonitrile, hydrochloride] | 100.1 ± 18.8 mg/100 g BW | 74% | 9.72 | Uterus Weight [1, 5]: 108.2 ± 11.9 mg/100 g BW; Inhibition in % (of uterus growth, based on the androstenedione group) [1, 5]: 69% |
| N#Cc1ccc(C(=C2CCCCC2)n2ccnc2)cc1 [Compound B, 4-[1-Cyclohexylidene-1-(1-imidazolyl)methyl]benzonitrile] | 72.5 ± 10.3 mg/100 g BW | 82% | 9.32 | – |
